± gives the standard deviation of the averaged measurements.
Tests used:
Test in all cases: growth (OD600 after 24 h); higher = more growth
Efflux+ = test system: Efflux+
Procedure: (§1)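 E. coli BW25113 ΔaraC (Efflux+) or efflux-pump deletion strains (ΔtolC ΔentC, ΔemrE, ΔmdtI, ΔyeeO, ΔmdtK, ΔmdtM) diluted 1:100 in M9-based medium with a drug dilution series. Growth is read as OD600 after 24 h; 3 biological replicates.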

∆tolC ∆entC = test system: ∆tolC ∆entC
Procedure: as §1

∆mdtK = test system: ∆mdtK
Procedure: as §1

∆mdtM = test system: ∆mdtM
Procedure: as §1

∆mdtI = test system: ∆mdtI
Procedure: as §1

∆yeeO = test system: ∆yeeO
Procedure: as §1

∆emrE = test system: ∆emrE
Procedure: as §1

CC/C(=C(/CC)c1ccc(O)cc1)c1ccc(O)cc1 [Diethylstilbestrol]
growth
Settings	Efflux+	∆emrE	∆mdtI	∆mdtK	∆mdtM	∆tolC ∆entC	∆yeeO
drug 0.5 µM	0.872 ± 0.15	0.993 ± 0.022	0.863 ± 0.16	0.717 ± 0.032	0.7859 ± 0.0033	0.995 ± 0.024	0.983 ± 0.025
drug 1.25 µM	1.04 ± 0.046	0.978 ± 0.012	0.979 ± 0.022	0.754 ± 0.083	0.8345 ± 0.0046	1.04 ± 0.011	0.991 ± 0.018
drug 2.5 µM	1.03 ± 0.017	0.977 ± 0.034	0.976 ± 0.031	0.881 ± 0.028	0.903 ± 0.0068	1.03 ± 0.0052	1.01 ± 0.019
drug 5 µM	1.07 ± 0.022	1.01 ± 0.035	0.9841 ± 0.0028	0.786 ± 0.073	0.956 ± 0.014	0.761 ± 0.037	1 ± 0.026
drug 10 µM	1.056 ± 0.0079	1.06 ± 0.02	1.02 ± 0.017	0.84 ± 0.12	0.9842 ± 0.0088	0.0999 ± 0.018	1.04 ± 0.011
drug 20 µM	1.06 ± 0.063	1.08 ± 0.028	0.948 ± 0.055	0.713 ± 0.032	1.05 ± 0.019	0.0484 ± 0.0012	1.07 ± 0.027

Nc1nc2ccc(OC(F)(F)F)cc2s1 [Riluzole]
growth
Settings	Efflux+	∆emrE	∆mdtI	∆mdtK	∆mdtM	∆tolC ∆entC	∆yeeO
drug 16 µM	1.09 ± 0.017	0.961 ± 0.026	1.06 ± 0.02	0.831 ± 0.072	0.802 ± 0.01	1.05 ± 0.014	0.958 ± 0.011
drug 31 µM	1.038 ± 0.0013	1.06 ± 0.066	1.045 ± 0.0025	0.799 ± 0.032	0.79 ± 0.015	1.09 ± 0.018	0.905 ± 0.046
drug 62 µM	0.997 ± 0.033	1.08 ± 0.037	1.01 ± 0.021	0.788 ± 0.016	0.776 ± 0.016	1.02 ± 0.023	0.851 ± 0.057
drug 125 µM	0.978 ± 0.019	1.12 ± 0.039	0.981 ± 0.029	0.749 ± 0.054	0.74 ± 0.02	0.97 ± 0.018	0.909 ± 0.018
drug 250 µM	0.973 ± 0.024	1.09 ± 0.053	0.9767 ± 0.0089	0.741 ± 0.017	0.785 ± 0.043	0.634 ± 0.019	0.857 ± 0.035
drug 500 µM	0.74 ± 0.04	0.8264 ± 0.0056	0.634 ± 0.072	0.669 ± 0.011	0.527 ± 0.042	0.0507 ± 0.0015	0.703 ± 0.019

N=C(N)c1ccc(OCCCCCOc2ccc(C(=N)N)cc2)cc1 [Pentamidine]
growth
Settings	Efflux+	∆emrE	∆mdtI	∆mdtK	∆mdtM	∆tolC ∆entC	∆yeeO
drug 6.25 µM	0.978 ± 0.016	0.879 ± 0.034	1.003 ± 0.0084	0.814 ± 0.035	0.809 ± 0.015	0.996 ± 0.023	0.845 ± 0.043
drug 12.5 µM	0.894 ± 0.011	0.8324 ± 0.0056	0.936 ± 0.028	0.77 ± 0.05	0.7967 ± 0.0071	0.854 ± 0.033	0.833 ± 0.013
drug 25 µM	0.88 ± 0.021	0.826 ± 0.035	0.89493 ± 0.00061	0.68 ± 0.07	0.779 ± 0.013	0.804 ± 0.018	0.79 ± 0.029
drug 50 µM	0.805 ± 0.034	0.811 ± 0.041	0.837 ± 0.037	0.513 ± 0.21	0.745 ± 0.015	0.709 ± 0.02	0.758 ± 0.037
drug 100 µM	0.635 ± 0.0072	0.739 ± 0.024	0.655 ± 0.039	0.367 ± 0.03	0.614 ± 0.013	0.389 ± 0.023	0.637 ± 0.023
drug 200 µM	0.337 ± 0.06	0.615 ± 0.0068	0.352 ± 0.032	0.212 ± 0.034	0.502 ± 0.097	0.0928 ± 0.015	0.34 ± 0.014

From the supplement of paper PMC9262897, “Low-cost anti-mycobacterial drug discovery using engineered E. coli” (Nature Communications, 2022)
